Experimental data as given in patent publication US20230091225A1, “Bifunctional chimeric heterocyclic compounds for targeted degradation of androgen receptors and use thereof” (HINOVA PHARMACEUTICALS INC., priority 2019, published 2023).
Read-outs that look alike come from different tables or passages of the source.

Columns and labels:
LNCaP/AR cells = assay: Inhibition of proliferation of LNCaP/AR prostate cancer cells (CCK-8); format: cell-based
androgen receptor (AR) = target: T1, androgen receptor (AR) (Homo sapiens, UniProt P10275); assay: Degradation of androgen receptor (AR) protein in VCaP cells by ELISA; format: cell-based; settings: for inhibition at 0.1 µM: read-out: % degradation
T1 sequence (P10275 1-920): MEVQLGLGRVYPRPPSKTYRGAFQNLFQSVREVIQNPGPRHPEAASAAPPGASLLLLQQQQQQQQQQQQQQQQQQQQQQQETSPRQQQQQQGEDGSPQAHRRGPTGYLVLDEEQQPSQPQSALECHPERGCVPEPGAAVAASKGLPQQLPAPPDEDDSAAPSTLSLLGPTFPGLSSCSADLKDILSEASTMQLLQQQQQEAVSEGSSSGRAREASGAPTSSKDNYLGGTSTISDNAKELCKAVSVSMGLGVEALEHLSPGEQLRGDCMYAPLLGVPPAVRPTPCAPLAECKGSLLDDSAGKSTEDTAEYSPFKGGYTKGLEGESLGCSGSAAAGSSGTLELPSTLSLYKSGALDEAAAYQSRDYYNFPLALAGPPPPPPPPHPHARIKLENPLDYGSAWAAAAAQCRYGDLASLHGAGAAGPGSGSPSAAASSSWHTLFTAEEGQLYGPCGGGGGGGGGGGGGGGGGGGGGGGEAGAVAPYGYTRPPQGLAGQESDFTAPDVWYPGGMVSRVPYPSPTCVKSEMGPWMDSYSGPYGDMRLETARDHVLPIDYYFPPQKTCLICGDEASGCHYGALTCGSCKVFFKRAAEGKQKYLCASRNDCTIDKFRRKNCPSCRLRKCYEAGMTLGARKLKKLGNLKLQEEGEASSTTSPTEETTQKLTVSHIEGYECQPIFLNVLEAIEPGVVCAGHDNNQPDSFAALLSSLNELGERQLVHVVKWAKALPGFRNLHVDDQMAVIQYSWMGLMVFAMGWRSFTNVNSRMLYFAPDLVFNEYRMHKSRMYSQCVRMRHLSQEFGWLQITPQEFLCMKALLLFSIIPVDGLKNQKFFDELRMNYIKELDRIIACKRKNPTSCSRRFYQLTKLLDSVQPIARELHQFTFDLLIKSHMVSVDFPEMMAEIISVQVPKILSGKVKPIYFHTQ

[1] = 144 h, proliferation of LNCap/AR cells, 6 days, CCK-8, read-out: IC50
[2] = percentage of degraded AR at 100 nM, VCaP cells, 16 h, ELISA
[3] = proliferation of LNCap/AR cells, 6 days, CCK-8, read-out: IC50

| Compound | IC50 (LNCaP/AR cells; [1]) | inhibition at 0.1 µM (androgen receptor (AR); [2]) | also measured |
| --- | --- | --- | --- |
| Cc1ncsc1-c1ccc([C@H](C)NC(=O)[C@@H]2C[C@@H](O)CN2C(=O)[C@@H](NC(=O)COCCCCCNc2ccc3c(c2)C(=O)N([C@H]2C(C)(C)[C@H](Oc4ccc(C#N)c(Cl)c4)C2(C)C)C3)C(C)(C)C)cc1 [Compound 7, (2S,4R)-1-((S)-2-(2-((5-((2-((1R,3R)-3-(3-chloro-4-cyanophenoxy)-2,2,4,4-tetramethylcyclobutyl)-3-oxoisoindolin-5-yl)amino)pentyl)oxy)acetylamino)-3,3-dimethylbutyryl)-4-hydroxy-N-((S)-1-(4-(4-methylthiazol-5-yl)phenyl)ethyl) pyrrolidine-2-carboxamide] | < 100 nM | 50 to 79% |  |
| (2S,4R)-1-((S)-2-(2-(4-(3-(2((1s,3s)-3-(3-chloro-4-cyanophenoxy)-2,2,4,4-tetramethylcyclobutyl)-1-oxoisoindolin-5-yl)prop-2-yn-1-yl)piperidin-1-yl)acetylamino)-3,3-dimethylbutyryl)-4-hydroxy-N-((S)-1-(4-(4-methylthiazol-5-yl)phenyl)ethyl)pyrrolidine-2-carboxamide [Compound 39] |  |  | IC50 (LNCaP/AR cells; [3]): < 100 nM; % degradation (androgen receptor (AR)): C (key: A: >80%; B: 79%-50%; C: 49%-25%; D: <25%) |
| N#Cc1ccc(O[C@H]2CC[C@H](N3Cc4nc(N5CCC(CN6CCN(c7ccc8c(c7)C(=O)N(C7CCC(=O)NC7=O)C8=O)CC6)CC5)ccc4C3=O)CC2)cc1Cl (stereo partly drawn) [Compound 201] | > 1000 nM | 50 to 79% |  |
| CC(=O)O[C@@H]1C[C@@H](C(=O)N[C@@H](C)c2ccc(-c3scnc3C)cc2)N(C(=O)[C@@H](NC(=O)Cn2cc(C#Cc3ccc4c(c3)CN([C@H]3C(C)(C)[C@H](Oc5ccc(C#N)c(Cl)c5)C3(C)C)C4=O)cn2)C(C)(C)C)C1 [Compound 10, (3R,5S)-1-((S)-2-(2-(4-((2-((1r,3r)-3-(3-chloro-4-cyanophenoxy)-2,2,4,4-tetramethylcyclobutyl)-1-oxoisoindolin-5-ylethynyl)-1H-pyrazol-1-yl)acetylamino)-3,3-dimethylbutyryl)-5-((((S)-1-(4-(4-methylthiazol-5-yl)phenyl)ethylcarbamoyl)pyrrolidin-3-yl acetate] |  |  | IC50 (LNCaP/AR cells; [3]): 100 to 500 nM; % degradation (androgen receptor (AR)): C (key: A: >80%; B: 79%-50%; C: 49%-25%; D: <25%) |
| CC(=O)O[C@@H]1C[C@@H](C(=O)N[C@@H](C)c2ccc(-c3scnc3C)cc2)N(C(=O)[C@@H](NC(=O)COCCOCC#Cc2ccc3c(c2)CN([C@H]2C(C)(C)[C@H](Oc4ccc(C#N)c(Cl)c4)C2(C)C)C3=O)C(C)(C)C)C1 [Compound 12, (3R,5S)-1-((S)-2-(2-(2-((3-(2-((1r,3r)-3-(3-chloro-4-cyanophenoxy)-2,2,4,4-tetramethylcyclobutyl)-1-oxoisoindolin-5-yl)prop-2-yn-1-yl)oxy)propoxy)acetylamino)-3,3-dimethylbutyryl)-5-((((S)-1-acetic acid (4-(4-methylthiazol-5-yl)phenyl)ethyl)carbamoyl)pyrrolidin-3-yl acetate] |  | 50 to 79% | IC50 (LNCaP/AR cells; LNCaP/AR, 144 h): < 100 nM |
| CC(=O)O[C@@H]1C[C@@H](C(=O)N[C@@H](C)c2ccc(-c3scnc3C)cc2)N(C(=O)[C@@H](NC(=O)CN2CCC(CN3CCN(c4ccc(C(=O)NC5C[C@@]6(C)O[C@]5(C)[C@@H]5C(=O)N(c7ccc(C#N)c(Cl)c7)C(=O)[C@@H]56)cn4)CC3)CC2)C(C)(C)C)C1 (stereo partly drawn) [Compound 17, (3R,5S)-1-((2S)-2-(2-(4-((4-(5-(((3aR,4R,7R,7aS)-2-(3-chloro-4-benzonitrile)-4,7-dimethyl-1,3-dioxooctahydro-1H-4,7-epoxyisoindolin-5-yl)carbamoyl) (pyridin-2-yl)piperazin-1-yl)methyl)piperidin-1-yl)acetylamino)-3,3-dimethylbutyryl)-5-(((S)-1-(4-(4-methylthiazol-5-yl)phenyl)ethyl)carbamoyl)pyrrolidin-3-yl acetate] |  |  | IC50 (LNCaP/AR cells; LNCaP/AR, 144 h): < 100 nM; inhibition at 0.1 µM (androgen receptor (AR); VCaP, 16 h): 50 to 79% |
| CC(C#Cc1ccc2c(c1)CN(C1C(C)(C)C(Oc3ccc(C#N)c(Cl)c3)C1(C)C)C2=O)N1CCN(c2cc3c(cc2F)C(=O)N(C2CCC(=O)NC2=O)C3=O)CC1 (stereo not drawn) [Compound 199, 2-chloro-4-((1r,3r)-3-(5-(4-(2,6-dioxopiperidin-3-yl)-6-fluoro-1,3-dioxoisoindolin-5-yl)piperazin-1-yl)but-1-yn-1-yl)-1-oxoisoindolin-2-yl)-2,4,4-tetramethylcyclobutoxy)benzonitrile] |  |  | IC50 (LNCaP/AR cells; [3]): > 1000 nM; % degradation (androgen receptor (AR); [2]): D (<25%) |
| Cc1ncsc1-c1ccc([C@H](C)NC(=O)[C@@H]2C[C@@H](O)CN2C(=O)[C@@H](NC(=O)CN2CCC(CN3CCN(c4ccc(C(=O)NC5CC6(C)OC5(C)[C@@H]5C(=O)N(c7ccc(C#N)c(Cl)c7)C(=O)[C@@H]56)cn4)CC3)CC2)C(C)(C)C)cc1 (stereo partly drawn) [Compound 18, N-((3aR,4R,7R,7aS)-2-(3-chloro-4-benzonitrile)-4,7-dimethyl-1,3dioxooctahydro-1H-4,7-epoxyisoindolin-5-yl)-6-(4-((1-(2-(((S)-1-((2S,4R)-4-hydroxy-2-(((S)-1-(4-(4-methylthiazol-5-yl)phenyl)ethyl)carbamoyl)pyrrolidin-1-yl)-3,3-dimethyl-1-oxobutan-2-yl)amino)-2-oxoethyl)piperidine-4-yl)methyl)piperazin-1-yl)nicotinamide] |  |  | IC50 (LNCaP/AR cells; LNCaP/AR, 144 h): < 100 nM; inhibition at 0.1 µM (androgen receptor (AR); VCaP, 16 h): > 80% |
| Cc1ncsc1-c1ccc([C@H](C)NC(=O)[C@@H]2C[C@@H](O)CN2C(=O)[C@@H](NC(=O)COCCOCC#Cc2ccc3c(c2)CN([C@H]2C(C)(C)[C@H](Oc4ccc(C#N)c(Cl)c4)C2(C)C)C3=O)C(C)(C)C)cc1 [Compound 13] |  |  | IC50 (LNCaP/AR cells; [3]): < 100 nM; % degradation (androgen receptor (AR); [2]): B (79%-50%) |

More lines, main results first:

| IC50 (LNCaP/AR cells; [1]) | inhibition at 0.1 µM (androgen receptor (AR); [2]) | Compound | also measured |
| --- | --- | --- | --- |
| 100 to 500 nM | 25 to 49% | N#Cc1ccc(O[C@H]2CC[C@H](N3Cc4nc(N5CC[C@@H](CN6CCN(c7cc8c(cc7F)C(=O)N(C7CCC(=O)NC7=O)C8)CC6)C5)ccc4C3=O)CC2)cc1Cl (stereo partly drawn) [Compound 55] |  |
| < 100 nM | 50 to 79% | Cc1ncsc1-c1ccc(C2(NC(=O)C3C[C@@H](O)CN3C(=O)[C@@H](NC(=O)COCCCCCNc3ccc(C(=O)N[C@H]4C(C)(C)[C@H](Oc5ccc(C#N)c(Cl)c5)C4(C)C)cc3)C(C)(C)C)CC2)cc1 (stereo partly drawn) [Compound 47] |  |
| < 100 nM | 25 to 49% | [2H]C([2H])([2H])N(C(=O)c1ccc(C#CCCCNC(=O)C2(C(=O)N[C@H](C(=O)N3C[C@H](O)C[C@H]3C(=O)N[C@@H](C)c3ccc(-c4scnc4C)cc3)C(C)(C)C)CC2)cc1)[C@H]1C(C)(C)[C@H](Oc2ccc(C#N)c(Cl)c2)C1(C)C [Compound 28] |  |
| 100 to 500 nM | 50 to 79% | CC1(C)[C@H](Oc2ccc(C#N)c(Cl)c2)C(C)(C)[C@H]1N1Cc2nc(N3CCC(CN4CCN(c5cc6c(cc5F)C(=O)N(C5CCC(=O)NC5=O)C6=O)CC4)CC3)ccc2C1=O (stereo partly drawn) [Compound 198] |  |
| < 100 nM | 50 to 79% | Cc1ncsc1-c1ccc([C@H](C)NC(=O)[C@@H]2C[C@@H](O)CN2C(=O)[C@@H](NC(=O)COC2CN(CCC#Cc3ccc4c(c3)CN([C@H]3C(C)(C)[C@H](Oc5ccc(C#N)c(Cl)c5)C3(C)C)C4=O)C2)C(C)(C)C)cc1 [Compound 32, (2s,4r)-1-((s)-2-(2-((1-(4-(2-((1r,3r)-3-(3-chloro-4-cyanophenoxy)-2,2,4,4-tetramethylcyclobutyl)-1-oxoheteroin-5-yl)-3-butyne-1-yl)azetidine-3-yl)oxy)acetamido)-3,3-dimethylbutyryl)-4-hydroxy-N-((S)-1-(4-(4-methylthiazol-5-yl)phenyl)ethyl)pyrrolidine-2-carboxamide] |  |
| 100 to 500 nM | 50 to 79% | CC1(C)[C@H](Oc2ccc(C#N)c(Cl)c2)C(C)(C)[C@H]1N1Cc2cc(C#CC3CCN(C4CCN(c5cc6c(cc5F)C(=O)N(C5CCC(=O)NC5=O)C6=O)CC4)CC3)ccc2C1=O (stereo partly drawn) [Compound 51] |  |
| > 1000 nM | < 25% | N#Cc1ccc(O[C@H]2CC[C@H](N3Cc4nc(N5CCN(CC6CCN(c7cc8c(cc7F)C(=O)N(C7CCC(=O)NC7=O)C8=O)CC6)CC5)ccc4C3=O)CC2)cc1Cl (stereo partly drawn) [Compound 210] |  |
| < 100 nM | 25 to 49% | Cc1ncsc1-c1ccc([C@H](C)NC(=O)[C@@H]2C[C@@H](O)CN2C(=O)[C@@H](NC(=O)COCC(C)OCC#Cc2ccc3c(c2)CN([C@H]2C(C)(C)[C@H](Oc4ccc(C#N)c(Cl)c4)C2(C)C)C3=O)C(C)(C)C)cc1 (stereo partly drawn) [Compound 15] |  |
| < 100 nM | 25 to 49% | [2H]C([2H])([2H])N(C(=O)c1ccc(C#CCCCOCC(=O)N[C@H](C(=O)N2C[C@H](O)C[C@H]2C(=O)N[C@@H](C)c2ccc(-c3scnc3C)cc2)C(C)(C)C)cc1)[C@H]1C(C)(C)[C@H](Oc2ccc(C#N)c(Cl)c2)C1(C)C [Compound 22] |  |
